Measured values published in patent US8937090B2, “Parakeratosis inhibitor, pore-shrinking agent and external composition for skin” (Shiseido Company, Ltd., priority 2005, dated 2015).

Columns and labels:
hairless mouse (HR-1) = assay: Parakeratosis-inhibiting effect test (oleic acid applied to back of hairless mouse; visual rough skin evaluation and parakeratosis value); type: in vivo; conditions: for parakeratosis-inhibiting effect: in words, summary of Table 1; for Visual evaluation (average of four animals): rough skin score, control = 2.0, no skin roughness = 0.0, 3 days application after 10 mass % oleic acid; for Parakeratosis value (average of four animals): scale 1.0 to 3.0, higher = parakeratosis advanced, control 2.0
Description: Aqueous solutions (containing 30 mass % of ethanol) of 3 mass % of a β-alanine derivative or salt thereof were prepared mainly as the evaluation sample. The pH was regulated by hydrochloric acid or sodium hydroxide so as to be 7.0 to 7.5. When sample solubility was low, the solution was prepared accordingly.
100 μL of 10 mass % oleic acid solution (solvent: ethanol) were applied to the back of a hairless mouse (HR-1; Hoshino Laboratory Animals). Then the sample solution (β-alanine derivative, and the like) was applied 100 μL at a time. This procedure was continued for three days. […] At the same time, the stratum corneum at the back of the hairless mouse was peeled off with tape, the nuclei were stained by hematoxylin, and the degree of parakeratosis was observed and evaluated by a parakeratosis value within a range of 1.0 to 3.0 (in 0.25 increments).

[1] = test system: cheeks of healthy human males; assay: Human pore-shrinking effect (replica of cheek pores, three-dimensional laser scanning microscope); type: in vivo; conditions: for pore-shrinking effect: in words, summary of Table 2; for Replica assessment value (average of n = 5): twice a day for one month, pore size rating (1-13) after minus before application, control 0.3
Description: An experiment was conducted whereby a sample was applied twice a day for one month to the cheeks of healthy human males in groups of 5 men each. Aqueous solutions (containing 15 mass % of ethanol) of 3 mass % of the β-alanine derivative or a salt thereof were prepared mainly as the evaluation sample. The pH was regulated by hydrochloric acid or sodium hydroxide so as to be 7.0 to 7.5. When the sample solubility was low, the solution was prepared accordingly. The control was an aqueous 15% ethanol solution. The sample aqueous solution and the control aqueous solution were applied to one half of the face at a time.
A replica was collected before and after continuous application, and changes in the shape of the pores at the same site were observed using a three-dimensional laser scanning microscope. The size of the pores was visually evaluated in the 13 steps of 1 through 13 (with the pores becoming larger as the numbers became larger), the difference in the ratings before and after application (after application—before application) was calculated, and the efficacy of each sample was studied using this difference as the replica assessment value.

hairless mice (HR-1) = assay: Inhibiting effect on rough skin induced by oleic acid application (transepidermal water loss); type: in vivo, mouse; parameters: ΔTEWL value: unit not given here; conditions: for rough skin preventing/ameliorating effect (ΔTEWL value versus control aqueous solution): in words, summary of Table 3; for ΔTEWL value: average of four mice, 3 days after 10 mass % oleic acid, control 12.0, increase = rough skin worse
Description: In order to investigate the inhibiting effect of β-alanine derivatives and salts thereof on rough skin induced by oleic acid application, the transepidermal water loss (TEWL value) before and after application was measured, the difference was compared with the control (control aqueous solution), and the effect was determined. […] The TEWL was determined using the TM210 TEWA Meter (Courage+Khazaka Electronic GmBH).
100 μL of 10 mass % oleic acid (solvent: ethanol) was applied to the back of hairless mice (HR-1, four mice per group). Then a sample solution (β-alanine derivatives) was applied 100 μL at a time. This procedure was continued for three days. On the following day, the TEWL value of the back was determined and the values of the four animals were averaged.

panel of 20 women = assay: Sensory irritation tests; type: in vivo, human; conditions: for sensory irritation: in words, summary of Table 4; for Evaluation (sensory irritation, class of average rating): 1 mL to cheek, rated for ten minutes
Description: 1 mL of a control aqueous solution and the sample aqueous solution prepared in Example 1 were applied using a cotton swab to the left or right cheek, respectively, of each member of a panel of 20 women, and the irritating sensation was evaluated every 30 seconds for ten minutes beginning immediately after application, whereby a final evaluation was reported. The evaluation of the irritating sensation was made based on the following four levels of rating criteria, and the average rating was calculated, whereby the average was classified by the following criteria.
3: Continuation is not possible because of extremely strong irritation, such as tingling sensation, burning sensation, stinging sensation, itching, and the like.
2: Intolerable because of strong irritation, such as tingling sensation, burning sensation, stinging sensation, itching, and the like.
1: Tolerable, but with slight irritation such as tingling sensation, burning sensation, stinging sensation, itching, and the like.
0: Not particularly irritating.
(Evaluation Criteria) • A: average rating of less than 0.2 • B: average rating of from 0.2 to less than 1.0 • C: average rating of from 1.0 to less than 2.0 • D: average rating of 2.0 or greater

| SMILES | parakeratosis-inhibiting effect (hairless mouse (HR-1)) | Visual evaluation (average of four animals) (hairless mouse (HR-1); sample 3 mass %) | Parakeratosis value (average of four animals) (hairless mouse (HR-1); sample 3 mass %) | pore-shrinking effect [1] | Replica assessment value (average of n = 5) ([1]; sample 3 mass %) | rough skin preventing/ameliorating effect (ΔTEWL value versus control aqueous solution) (hairless mice (HR-1)) | ΔTEWL value (hairless mice (HR-1); sample 3 mass %) | sensory irritation (panel of 20 women) | Evaluation (sensory irritation, class of average rating) (panel of 20 women; sample 3 mass %) | Replica assessment value (average of n = 5) ([1]; sample 1.0 mass %) | Visual evaluation (average of four animals) (hairless mouse (HR-1); sample 1 mass %) | Parakeratosis value (average of four animals) (hairless mouse (HR-1); sample 1 mass %) | ΔTEWL value (hairless mice (HR-1); sample 1 mass %) | Evaluation (sensory irritation, class of average rating) (panel of 20 women; sample 1 mass %) |
| --- | --- | --- | --- | --- | --- | --- | --- | --- | --- | --- | --- | --- | --- | --- |
| CN(CCC(=O)O)C1CCCCC1 [N-cyclohexyl-N-methyl-β-alanine] | reduced the parakeratosis value | 1.4 | 1.4 | effect was seen | −0.8 | effect was seen | 5.5 | no problem of sensory irritation | A (average rating of less than 0.2) | – | – | – | – | – |
| O=C(O)CCNC(=O)c1ccccc1 [N-benzoyl-β-alanine] | reduced the parakeratosis value | 1.1 | 1.1 | effect was seen | – | effect was seen | 4.0 | no problem of sensory irritation | A (average rating of less than 0.2) | −1.5 | – | – | – | – |
| O=C(O)CCNC(=O)C1CCCCC1 [N-cyclohexylcarbonyl-β-alanine] | reduced the parakeratosis value | 1.1 | 1.2 | effect was seen | −0.6 | effect was seen | 8.0 | no problem of sensory irritation | A (average rating of less than 0.2) | – | – | – | – | – |
| O=C(O)CCNCc1ccccc1 [N-benzyl-β-alanine] | reduced the parakeratosis value | 1.2 | 1.2 | effect was seen | −0.8 | effect was seen | 8.9 | no problem of sensory irritation | A (average rating of less than 0.2) | – | – | – | – | – |
| O=C(O)CCNCC1CCCCC1 [N-cyclohexylmethyl-β-alanine] | reduced the parakeratosis value | 1.1 | 1.1 | effect was seen | −0.8 | effect was seen | 8.9 | no problem of sensory irritation | A (average rating of less than 0.2) | – | – | – | – | – |
| O=C(O)CCNC(=O)c1cccnc1 [N-nicotinoyl-β-alanine] | reduced the parakeratosis value | – | – | effect was seen | – | effect was seen | – | no problem of sensory irritation | – | −0.8 | 1.1 | 1.2 | 6.0 | A (average rating of less than 0.2) |
| O=C(O)CCNS(=O)(=O)c1ccccc1 [N-benzenesulfonyl-β-alanine] | reduced the parakeratosis value | 1.1 | 1.2 | effect was seen | −0.7 | effect was seen | 5.4 | no problem of sensory irritation | A (average rating of less than 0.2) | – | – | – | – | – |
| O=C(O)CCNC1CCCCC1 [N-cyclohexyl-β-alanine] | reduced the parakeratosis value | 1.1 | 1.1 | effect was seen | −0.9 | effect was seen | 9.0 | no problem of sensory irritation | – | – | – | – | – | – |
